Laboratory results taken from patent US20230143604A1, “QW DOSING OF GIP RECEPTOR AGONIST PEPTIDE COMPOUNDS AND USES THEREOF” (TAKEDA PHARMACEUTICAL COMPANY LIMITED, priority 2020, published 2023).

Assays:
[1] = tested on: C57BL/6J mice; test: Oral glucose tolerance test (OGTT); assay type: in vivo; conditions: 3 nmol/kg s.c., 24 hours before glucose loading
In short: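 Peptide or vehicle given s.c. at 0.1, 0.3, 3 or 10 nmol/kg (peptide-dependent), 24 h before oral 50% dextrose at 5 ml/kg unless stated otherwise. Blood glucose read at 0, 15, 30 and 60 min. % inhibition = (1−(AUC cpd−AUC naïve)/(AUC veh−AUC naïve))×100.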

[2] = target: T1, human GLP-1R (Homo sapiens, UniProt P43220); test: Human GLP1R agonist activity, intracellular cAMP accumulation; assay type: cell-based; conditions: Human GLP1R cAMP EC50, HEK293T (nM), HEK-293T cells overexpressing human GLP-1R, 1 hr
T1 construct: HEK-293T cells overexpressing full-length human GLP-1R; FLAG (N); host or cells: HEK-293T
T1 sequence (P43220 24-463): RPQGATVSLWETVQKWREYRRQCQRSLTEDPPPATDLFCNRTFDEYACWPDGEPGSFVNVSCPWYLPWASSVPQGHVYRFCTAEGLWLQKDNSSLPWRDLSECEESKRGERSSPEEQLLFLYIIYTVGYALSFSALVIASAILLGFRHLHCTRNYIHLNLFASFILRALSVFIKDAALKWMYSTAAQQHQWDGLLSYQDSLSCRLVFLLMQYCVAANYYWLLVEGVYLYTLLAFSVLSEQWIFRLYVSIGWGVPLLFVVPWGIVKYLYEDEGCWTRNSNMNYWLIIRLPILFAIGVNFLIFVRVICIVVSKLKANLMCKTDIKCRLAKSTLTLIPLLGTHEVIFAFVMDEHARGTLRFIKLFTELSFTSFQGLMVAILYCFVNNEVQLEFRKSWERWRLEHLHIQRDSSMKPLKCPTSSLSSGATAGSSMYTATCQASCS
In short: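 Frozen assay-ready cells washed and resuspended at 4×10^5 cells/mL in Krebs Ringer buffer, then incubated with compound 1 hr at room temperature in the dark. cAMP read by HTRF (anti-cAMP antibody, d2-cAMP tracer). Normalised to 1 nm GLP-1 (100%) and DMSO (0%).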

[3] = Dog plasma protein binding (PPB); assay type: in vitro ADME; conditions: pH 7.4; fraction unbound; dog serum; read-out: Dog PPB (FUplasma)
In short: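 Dog serum replaced human serum, with the protocol and analysis otherwise the same as for human plasma protein binding. Values are reported as fraction unbound (Fu,plasma) expressed as a percentage.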

[4] = Solubility in phosphate buffer pH 7.4
In short: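 3 mg of peptide treated with 100 μL portions of 200 mM phosphate buffer pH 7.4, sonicating/vortexing up to 1 min, with further buffer added until fully dissolved. Solubility then quantified by HPLC.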

[5] = Human plasma protein binding (PPB); assay type: in vitro ADME; conditions: both sexes, pH 7.4; fraction unbound; human plasma, 1000 nmol/L peptide, ultracentrifugation; read-out: Human PPB (FUplasma)
In short: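 Peptides spiked at 1000 nmol/L into pooled human K2-EDTA plasma adjusted to pH 7.4, incubated 30 min at 37 °C, then ultracentrifuged at ~450,000 g, 4 °C for 3 h. Fu derived from LC-MS/MS (MRM) peak area ratios, supernatant versus plasma.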

[6] = target: T2, human GIPR (Homo sapiens, UniProt P48546); test: Human GIPR agonist activity, intracellular cAMP accumulation; assay type: cell-based
T2 construct: HEK-293T cells overexpressing full-length human GIPR; FLAG (N); host or cells: HEK-293T
T2 sequence (P48546 22-466): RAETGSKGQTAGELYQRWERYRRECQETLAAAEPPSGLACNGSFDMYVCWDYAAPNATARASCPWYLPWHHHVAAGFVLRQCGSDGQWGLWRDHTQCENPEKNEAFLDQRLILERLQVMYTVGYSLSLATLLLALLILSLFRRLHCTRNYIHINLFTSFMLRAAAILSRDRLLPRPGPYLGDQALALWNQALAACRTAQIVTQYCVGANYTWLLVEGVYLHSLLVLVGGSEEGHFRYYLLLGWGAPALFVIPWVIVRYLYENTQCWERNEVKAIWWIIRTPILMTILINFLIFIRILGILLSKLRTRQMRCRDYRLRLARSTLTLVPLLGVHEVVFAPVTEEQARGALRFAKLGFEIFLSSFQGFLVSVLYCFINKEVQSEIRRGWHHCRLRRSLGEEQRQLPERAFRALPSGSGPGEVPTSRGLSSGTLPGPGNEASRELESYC
Protocol: Cells are cultured per the manufacturer's protocol in DMEM with 10% fetal bovine serum and 1 μg/mL puromycin and stored in frozen aliquots to be used as assay ready cells. On the day of the assay, cells are removed from frozen storage, washed two times in 1× Kreb's Ringer Buffer (Zenbio, Research Triangle Park, N.C.), and re-suspended to a concentration of 4×10^5 cells/mL in 1× Kreb's Ringer Buffer. […] Cells are incubated with test compound for 1 hr at room temperature in the dark, and cAMP accumulation is measured using the Cisbio HiRange cAMP assay kit (Bedford, Mass.) per the manufacturer's protocol. Anti-cAMP antibody and d2-cAMP tracer reagents diluted in lysis/detection buffer are incubated in the dark for 1 hr, and results are measured on an Envision plate reader (Perkin Elmer, Waltham, Mass.). Data is normalized using 1 nM GIP as 100% activity, and DMSO alone as 0% activity.

Compound: CC[C@H](C)[C@H](NC(=O)[C@H](CO)NC(=O)[C@H](Cc1ccc(O)cc1)NC(=O)[C@H](CC(=O)O)NC(=O)[C@H](CO)NC(=O)[C@@H](NC(=O)[C@H](Cc1ccccc1)NC(=O)[C@@H](NC(=O)CNC(=O)[C@H](CCC(=O)O)NC(=O)C(C)(C)NC(=O)[C@H](Cc1ccc(O)cc1)NC)[C@@H](C)O)[C@@H](C)CC)C(=O)N[C@@H](C)C(=O)N[C@@H](CCCCNC(=O)CNC(=O)CNC(=O)CNC(=O)CNC(=O)CNC(=O)CCCCCCCCCCCCCCCCC(=O)O)C(=O)N[C@@H](CC(=O)O)C(=O)N[C@@H](CCCNC(=N)N)C(=O)NC(C)(C)C(=O)N[C@@H](C)C(=O)N[C@@H](CCC(N)=O)C(=O)NC(C)(C)C(=O)N[C@@H](CC(N)=O)C(=O)N[C@@H](Cc1ccccc1)C(=O)N[C@H](C(=O)N[C@@H](CC(N)=O)C(=O)N[C@@H](Cc1c[nH]c2ccccc12)C(=O)N[C@@H](CC(C)C)C(=O)N[C@@H](CC(C)C)C(=O)N[C@@H](C)C(=O)N[C@@H](CCC(N)=O)C(=O)N[C@@H](CCCNC(=N)N)C(=O)N1CCC[C@H]1C(=O)N[C@@H](CO)C(=O)N[C@@H](CO)C(=O)NCC(=O)N[C@@H](C)C(=O)N1CCC[C@H]1C(=O)N1CCC[C@H]1C(=O)N1CCC[C@H]1C(=O)N[C@@H](CO)C(=O)O)C(C)C [Compound 44]
- Oral Glucose Tolerance Test Percent decrease in blood glucose AUC (%) over 60 mins [1]: 119% (3 nmol/kg)
- EC50 [2]: 10.7 nM
- fraction unbound at 30 min, 1000 nmol/L [3]: 0.0004
- solubility ([4]; pH 7.4, aqueous buffer, pH 7.4 Phosphate Buffer - Solubility, 200 mM Phosphate buffer pH 7.4): ≥ 30 mg/mL
- solubility ([4]; pH 7.4, solubility in phosphate buffer at pH 7.4, 200 mM phosphate buffer pH 7.4): ≥ 15 mg/mL
- fraction unbound at 30 min, 1000 nmol/L [5]: 0.0007
- EC50 [6]: 1.7 pM
